Laboratory results from patent US20110150873A1, “ANTI-INFLAMMATORY COMPOSITIONS AND COMBINATIONS” (CAMBRIDGE ENTERPRISE LIMITED, priority 2007, published 2011).
Entries after “also recorded” stand apart in the source; their conditions may differ.

What was measured:
[1] = test system: leukocyte recruitment into the lung; assay: ovalbumin-sensitised rat model of asthma: total BAL leukocyte count; assay type: in vivo, Brown Norway rats; conditions: low dose alone: 0.03 mg/kg B′ or 0.01 mg/kg DMX, daily oral
Procedure: (§1) Briefly, adult Brown Norway rats (200-300 g body weight; n=10 per group) are sensitised by a single interperitoneal injection of 0.1 mg Ovalbumin on day 0. Each rat then receives an intratracheal challenge with a solution of 1% ovalbumin (w/v) on day 8, and with 2% ovalbumin (w/v) on days 15, 18 and 21. The animals are then sacrificed 3 hours after the final challenge on day 21. Note that ovalbumin (Sigma; purest available grade) can be made endotoxin-free by passage over EndoTrap Red columns (purchased from Cambrex; used in accordance with the manufacturer's instructions), and the endotoxin level confirmed as <5 EU/mg protein using the LAL assay (QCL-1000; Cambrex; performed in accordance with the manufacturer's instructions; 1 mg of standard endotoxin contains ˜900,000 EU/mg). […]
On sacrifice, total lung leukocyate recruitment is assessed by performing a broncheoalveolar lavage (BAL) using 4 lots of 3 ml sterile phosphate-buffered saline introduced through a tracheal cannula. For each animal, the BAL washes are combined, and the total cell population counted (using a haemocytometer).

[2] = test system: Th1/Th2 polarisation axis; assay: ovalbumin-sensitised rat model of asthma: splenocyte Th1/Th2 ratio by flow cytometry; assay type: in vivo, Brown Norway rats; conditions: low dose B′ (0.03 mg/kg)
Procedure: as §1, with “EU/mg). This ensures that the lung inflammation response results from the allergic response to the ovalbumin protein, rather than from unintended LPS stimulation which occurs even with the highest purity grade commercial ovalbumin preparations, and therefore ensures the model more closely represents the underlying molecular pathology of human asthma.” for “EU/mg).”
The spleen is also removed from each mouse and placed in RPMI+10% FCS+antibiotics. […] The resulting cell suspensions are then centrifuged (328 g; 5 mins) and washed in RPMI+10% FCS+antibiotics, before being resuspended in fresh media and counted using a haemocytometer. […]

[3] = test system: serum growth hormone (GH); assay: ovalbumin-sensitised rat model of asthma: serum growth hormone ELISA (side-effect measure); assay type: in vivo, Brown Norway rats
Procedure: Briefly, adult Brown Norway rats (200-300 g body weight; n=10 per group) are sensitised by a single interperitoneal injection of 0.1 mg Ovalbumin on day 0. Each rat then receives an intratracheal challenge with a solution of 1% ovalbumin (w/v) on day 8, and with 2% ovalbumin (w/v) on days 15, 18 and 21. The animals are then sacrificed 3 hours after the final challenge on day 21. Note that ovalbumin (Sigma; purest available grade) can be made endotoxin-free by passage over EndoTrap Red columns (purchased from Cambrex; used in accordance with the manufacturer's instructions), and the endotoxin level confirmed as <5 EU/mg protein using the LAL assay (QCL-1000; Cambrex; performed in accordance with the manufacturer's instructions; 1 mg of standard endotoxin contains ˜900,000 EU/mg). This ensures that the lung inflammation response results from the allergic response to the ovalbumin protein, rather than from unintended LPS stimulation which occurs even with the highest purity grade commercial ovalbumin preparations, and therefore ensures the model more closely represents the underlying molecular pathology of human asthma.
One group of mice (acting as a baseline control) receives no ovalbumin challenges, but are otherwise treated identically. A second group (positive control) receives the challenges but no drug treatment. Further groups are treated identically, but receive daily dosage with: (a) (S)-3-(2′,2′-dimethylpropanoylamino)-tetrahydropyridin-2-one (B′) at a dose of either 0.3 mg/kg or 0.03 mg/kg via oral gavage from day 8 until day 21, with dosage being given 1 hr prior to any subsequent challenge with ovalbumin made on the same day. […]
Serum is also prepared from a terminal bleed, and levels of GH are measured using a commercially available ELISA (Diagnostic Systems Laboratories, Inc; DSLabs) in accordance with the manufacturer's instructions.

[4] = test system: LPS-induced serum TNF-α; assay: sub-lethal LPS-induced endotoxemia assay; assay type: in vivo, adult female CD-1 mice; conditions: for % Inhibition of LPS-induced serum TNF-α, Mean: oral route, six mice
Text: In this assay, mice are given a non-specific pro-inflammatory challenge using bacterial endotoxin (LPS), and the extent of the systemic inflammatory response (measured by serum levels of the central pro-inflammatory cytokine TNF-α, which is essentially absent from the blood under normal conditions, but is rapidly elevated in response to a wide range of inflammatory stimuli). We have selected this model, even though it is not, itself, a particularly close model of any human inflammatory disease condition, because TNF-α is known to be important in very many diseases (including rheumatoid arthritis, autoimmune disorders, Crohn's Disease, atherosclerosis, asthma and many more). Consequently, agents which suppress TNF-α production are already used clinically (e.g. etanercept (Enbrel™) and other anti-TNF-α antibody products, such as infliximab (Remicade™) and adalimumab (Humira™)) to treat a wide range of such diseases.
Mice (adult female CD-1 mice in groups of 6) were pretreated with various doses of each compound, either by the subcutaneous route 30 mins prior to LPS challenge, or by the oral route (via gavage) 60 mins prior to LPS. The mice were then challenged with an intraperitoneal injection of 750 μg of bacterial LPS and sacrificed 2 hours later. Serum was prepared from a terminal bleed by cardiac puncture, and the concentration of TNF-α determined by ELISA (R&D Systems). In each experiment, a group of 6 mice receive no LPS to act as a negative control, and a second group receive only LPS (with no candidate inhibitor). The level of TNF-α in serum from these animals which received LPS without drug pre-treatment is arbitrarily set to 100% (and is typically of the order of 6,000 pg/ml, compared with levels of <10 pg/ml among the negative control group, which received no LPS).

CC(C)(C)C(=O)N[C@H]1CCCNC1=O [B′, (S)-3-(2′,2′-dimethylpropanoylamino)-tetrahydropyridin-2-one]
effect on leukocyte accumulation in the lung [1]: ineffective; also recorded: neither compound, when administered alone, has a statistically significant effect | re-balancing of the Th1/Th2 axis [2]: statistically significant Th1 shift | significant suppression of serum GH levels ([3]; B′ alone): not

C[C@@H]1C[C@H]2[C@@H]3CCC4=CC(=O)C=C[C@]4(C)[C@@]3(F)[C@@H](O)C[C@]2(C)[C@@]1(O)C(=O)CO [DMX, Dexamethasone, reference compound]
% Inhibition of LPS-induced serum TNF-α, Mean ([4]; Experiment 1, DMX 3 × 10^−7 mg): 19% | % Inhibition of LPS-induced serum TNF-α, Mean ([4]; Experiment 2, DMX 3 × 10^−7 mg): 37% | suppression of serum GH levels ([3]; high dose DMX (1 mg/kg)): ≤ 80% | suppression of serum GH levels ([3]; low dose DMX (0.01 mg/kg)): approximately 10%

(S)-3-(adamantylamino)-caprolactam [B]
% Inhibition of LPS-induced serum TNF-α, Mean ([4]; Experiment 1, B 3 × 10^−6 mg): 34% | % Inhibition of LPS-induced serum TNF-α, Mean ([4]; Experiment 1): 15% | % Inhibition of LPS-induced serum TNF-α, Mean ([4]; Experiment 2, B 3 × 10^−6 mg): 54% | % Inhibition of LPS-induced serum TNF-α, Mean ([4]; Experiment 2): 34% | anti-inflammatory effect on the TNF-α response ([4]; administered separately: 0.3 μg per mouse DMX or 0.1 μg/mouse B): minor anti-inflammatory effect which was not statistically significant in every experiment
